This data set in a line: solubility in water. In kind it is physicochemical. The conditions noted are these: stated in words in the process description.

Structures can show the parent of a compound that is named as a salt.

Regarding `Cc1ccc(NC(=O)C2(c3ccc4c(c3)OC(F)(F)O4)CC2)nc1-c1cccc(C(=O)O)c1` [compound 9, 3-(6-(1-(2,2-difluorobenzo[d][1,3]dioxol-5-yl)cyclopropanecarboxamido)-3-methylpyridin-2-yl)benzoic acid.HCL salt], the solubility in water entry is “sparingly soluble”.
